Twelve compounds from patent EP1169044B1, “USE OF FUCOSYLATED SIALYLATED N-ACETYL LACTOSAMINE CARBOHYDRATE STRUCTURES FOR INHIBITION OF BACTERIAL ADHERENCE” (Borén, Thomas, priority 1999, dated 2000) can be followed below.

Experiment [1] relates to Helicobacter pylori strain CCUG 17875. In words: thin-layer chromatogram binding assay (radiolabelled bacteria overlaid on separated glycosphingolipids). The note with it: glycosphingolipids on thin-layer chromatograms, autoradiogram. The protocol: (§1) The glycosphingolipids were separated and (A) visualised with anisaldehyde. Duplicate chromatograms were incubated with monoclonal (B) anti-sialyl-Lewis x, (C) anti-sialyl-Lewis a, and radiolabelled H. pylori (D) strain CCUG 17875, (E) the BabA1A2 mutant strain, and (F) strain CCUG 17874. Autoradiography was for 12 hr. The lanes contained: 1, Acid glycosphingolipids of calf brain, 40 µg; 2, Acid glycosphingolipids of human neutrophil granulocytes, 40 µg; 3, Acid glycosphingolipids of human neutrophil granulocytes after de-sialylation, 40 µg; 4, Acid glycosphingolipids of human gall bladder adenocarcinoma, 40 µg; 5, Acid glycosphingolipids of human gall bladder adenocarcinoma after de-sialylation, 40 µg; 6, NeuAcα3Galβ4(Fucα3)GlcNAcβ3Galβ4(Fucα3)GlcNAcβ3Galβ4Glcβ1Cer isolated from human gall bladder adenocarcinoma, 1 µg; 7, NeuAcα3Galβ3(Fucα4)GlcNAcβ3Galβ4Glcβ1-Cer (sialyl-Lewis a hexaglycosylceramide) isolated from human gall bladder adenocarcinoma, 4 µg; 8, NeuAcα3Galβ4(Fucα3)GlcNAcβ3Galβ4Glcβ1Cer (sialyl-Lewis x hexaglycosyl-ceramide), 4 µg; 9, Fucα2Galβ3(Fucα4)GlcNAcβ3Galβ4Glcβ1Cer (Lewis b-6 hexaglycosylceramide) of human small intestine, 4 µg.
(§2) Culture and ^35S-labelling of H. pylori was as outlined in (Ångström, J., Teneberg, S., Abul Milh, M,. Larsson, T., Leonardsson, I., Olsson, B.-M., Ölwegård Halvarsson, M., Danielsson, D., and Karlsson, K.-A. (1998). The lactosylceramide binding specificity of Helicobacter pylori. Glycobiology 8, 297-309.). Mixtures of glycosphingolipids (20-40 µg/lane) or pure compounds (0.002-4 µg/lane) were separated on aluminium-backed silica gel 60 HPTLC plates (Merck), using chloroform:methanol:water 60:35:8 (v/v/v) as solvent system. Chemical detection was done with anisaldehyde (Waldi, D. (1962) Sprühreagentien für die dünnschicht-chromatographie. In Dünnschicht-Chromatographie, E. Stahl ed. (Berlin: Springer-Verlag) pp. 496-51).
(§3) Binding of radiolabelled H. pylori to glycosphingolipids on thin-layer chromatograms was performed as described above (Ångström et al., 1998) using suspensions of bacteria diluted in phosphate-buffered saline (PBS), pH 7.3, to 1x10^8 CFU/ml. The specific activities of the suspensions were approximately 1 CPM per 100 H. pylori organisms. Binding of monoclonal antibodies was done as described (Magnani, J.L., Brockhaus, M., Smith, D.F., Ginsburg, V., Blaszczyk, M., Mitchell, K.F., Steplewski, Z., and Koprowski, H. (1981). A monosialoganglioside is a monoclonal antibody-defined antigen of colon-carcinoma. Science 212, 55-56). Anti-sialyl-Lewis x monoclonal antibodies (clone KM-93) were from Seikagaku Corp., Tokyo, Japan and anti-sialyl-Lewis a monoclonal antibodies (CA 19-9) from Signet Laboratories, Inc., Dedham, MA 02026, USA.
(§4) Screening of potential receptor structures unique for thebabA1/babA2-mutant was performed by adherence experiments to well-defined panels of MS-characterized glycolipids, from defined and unique sources and tissues. Binding of H. pylori and monoclonal antibodies to glycosphingo-lipids was evaluated using the thin-layer chromatogram binding assay (J. Ångström et al., Glycobiology 8, 297 (1998); J. M. McKibbin et al., J. Biol. Chem. 257,755 (1982)), i.e., glyco-lipids were separated on HPTLC-plates, and H. pylori CCUG 17875 wild type bacteria and the babA1/babA2-mutant were overlaid on the plates and binding of radio labelled bacterial cells was detected. (See Experimental procedures).

In experiment [2] the test system is strain CCUG 17874, the BabA2 mutant and the BabA1A2 mutant. The description is as above. To be noted: for Binding obtained with strain CCUG 17874, the babA2 mutant and the babA1A2 mutant: glycosphingolipids on thin-layer chromatograms, autoradiogram; for binding to glycosphingolipids on thin-layer chromatograms (in words): CCUG 17874, babA2 mutant, babA1A2 mutant. Also noted: species or system Helicobacter pylori. The method, then: as §1, §2, §3, §4

Experiment [3] has as its system H. pylori strains. In words: radio immuno analysis (RIA) with 125I-labelled neoglycoconjugates. The class given is binding, Helicobacter pylori. To be noted: strains of Fig. 4 (BabA2 mutant, babA1A2 mutant, CCUG 17875, CCUG 17874), 400 ng conjugate, 30 min. The protocol:
Bars, from the left to the right; The sialyl-alfa2.61actose-, sialyl-alfa2.31actose-, sialyl-Lewis a-, sialyl-Lewis x-, and Lewis b-, synthesised sialyl-Lewis x- sialyl-acetyllactosaminee, both with a either a 3 carbon or 14 carbon (extended/hydrophilic) spacer, conjugated to albumin, Finally, the histo-blood group antigen Lewis y (synthesised penta-saccharide) (V. Behar and S.J. Danishefsky, Angew. Chem. Int. Ed. Engi, 1994, 33, no. 14, 1468.), was analysed as a neo-glycoconjugate.
(§5) The sialyl-alfa2.3lactose-, sialyl-alfa2.61actose-, sialyl-Lewis a-, and Lewis b-oligosaccharide antigens used for neoglycoconjugate preparations were purified by HPLC, structurally identified and characterized with NMR-spectroscopy, and more than 95% pure. These conjugates were attached to albumin with an APD (acetylphenylenediamine) spacer attached to the carbohydrate by reductive animation and thus the terminal reducing monosaccharide unit of the oligosaccharide is reduced and is present as an aminoalditol, IsoSep AB, Tullinge, Sweden (T. Borén, P. Falk, K. A. Roth, G. Larson, and S. Normark, Science. 262, 1892 (1993), P. D. Rye, Nature Biotechnology 2, 155 (1996)). The synthesised sialyl-Lewis x- tetrasaccharide antigen was conjugated to albumin with the MPE (mercaptopropionyl-amidoethyl) -spacer, IsoSep AB. Synthesised sialyl-Lewis x-tetrasaccharide and sialyl-acetyllactosaminee, both with a either a 3 carbon or 14 carbon (extended/hydrophilic) spacer, conjugated to albumin, were obtained from Dextra Laboratories, Reading, UK. The RIA (Fig. 4) was performed according to (P. Falk, T. Borén, D. Haslam, M. G. Caparon, Meth. Cell Biol. 45, 161 (1994)) with minor modifications; the glycoconjugates were ^125I-labelled by the Chloramine T method. 1 ml of bacteria (A600= OD 0.10) was incubated with 400 ng of ^125I-labelled conjugate (that is an excess of receptor substrate) for 30 min. in phosphate buffered saline (PBS), 0.5 % albumin, 0.05 % Tween-20 (BB-buffer). After centrifugation, the ^125I-activity bound to the bacterial pellet was measured by gamma scintillation counting. Binding experiments were reproducible and performed in triplets. In addition, the level of binding-activity within the strain was stabile.

The test system of experiment [4] is babA1A2-mutant. Description: Scatchard affinity analysis with sialylated conjugates. The class given is binding, Helicobacter pylori.
From the text: as §5, with “1 ml of bacteria (A600= OD 0.10) was incubated with 400 ng of ^125I-labelled conjugate (that is an excess of receptor substrate) for 30 min. in phosphate buffered saline (PBS), 0.5 % albumin, 0.05 % Tween-20 (BB-buffer).” left out, “Binding experiments were reproducible and performed in triplets. In addition, the level of binding-activity within the strain was stabile.” left out

“NeuAcα3Galβ4(Fucα3)GlcNAcβ3Galβ4(Fucα3)GlcNAcβ3Galβ4Glcβ1Cer”: the “Binding obtained with strain CCUG 17875” value in experiment [1] (Table 1) is on record as “- (- denotes no darkening even at 2 nmol)”; in experiment [1] (Table 2), “- (– denotes no darkening even at 2 nmol)”. Further, the results for the “Binding obtained with strain CCUG 17874, the babA2 mutant and the babA1A2 mutant” value in experiment [2] (Table 1) and in experiment [2] (Table 2) were “+++ (+++ denotes a significant darkening on the autoradiogram when 1 pmol was applied on the thin-layer plate)” and “+3 (+3 denotes a significant darkening on the autoradiogram when 1 pmol of structure was applied on the thin-layer plate)”, respectively. Moreover, the detection level result in experiment [2] (binding on thin-layer chromatogram) is “approximately 1 pmol”.

In the case of “NeuAcα3Galβ3GalNAcβ4(NeuAcα3)Galβ4Glcβ1Cer [GD1a]”, the results for the “Binding obtained with strain CCUG 17875” value in experiment [1] (Table 1) and in experiment [1] (Table 2) were “- (- denotes no darkening even at 2 nmol)” and “- (– denotes no darkening even at 2 nmol)”, respectively. For the same compound, the “Binding obtained with strain CCUG 17874, the babA2 mutant and the babA1A2 mutant” value in experiment [2] (Table 1) is given as “- (- denotes no darkening even at 2 nmol)”; in experiment [2] (Table 2), “- (– denotes no darkening even at 2 nmol)”.

With “Galβ3GalNAcβ4(NeuAcα3)Galβ4Glcβ1Cer [GM1]”, the “Binding obtained with strain CCUG 17875” value in experiment [1] (Table 1) is “- (- denotes no darkening even at 2 nmol)”; in experiment [1] (Table 2), “- (– denotes no darkening even at 2 nmol)”. Also, the “Binding obtained with strain CCUG 17874, the babA2 mutant and the babA1A2 mutant” value in experiment [2] (Table 1) was “- (- denotes no darkening even at 2 nmol)”; in experiment [2] (Table 2), “- (– denotes no darkening even at 2 nmol)”.

Turning to “Galβ3GalNAcβ4(NeuAcα8NeuAcα3)Galβ4Glcβ1Cer [GD1b]”, the figures for the “Binding obtained with strain CCUG 17875” value in experiment [1] (Table 1) and in experiment [1] (Table 2) were “- (- denotes no darkening even at 2 nmol)” and “- (– denotes no darkening even at 2 nmol)”, respectively. Also, the “Binding obtained with strain CCUG 17874, the babA2 mutant and the babA1A2 mutant” value in experiment [2] (Table 1) is “- (- denotes no darkening even at 2 nmol)”; in experiment [2] (Table 2), “- (– denotes no darkening even at 2 nmol)”.

In the case of “NeuAcα3Galβ3(Fucα4)GlcNAcβ3Galβ4Glcβ1Cer [S-Le^a]”, the “Binding obtained with strain CCUG 17875” value in experiment [1] (Table 2) is listed as “- (– denotes no darkening even at 2 nmol)”. Besides, in experiment [2], the “binding to glycosphingolipids on thin-layer chromatograms (in words)” value (shortened to “binding to glycosphingolipids”) is listed as “almost no binding”. In experiment [2] (Table 2), the “Binding obtained with strain CCUG 17874, the babA2 mutant and the babA1A2 mutant” value is “- (– denotes no darkening even at 2 nmol)”.

In the case of `CC(=O)NC1C(O)CC(OCC2OC(OC3C(CO)OC(O)C(O)C3O)C(O)C(O)C2O)(C(=O)O)OC1C(O)C(O)CO` (centres unmarked) [sialyl-alfa2.61actose antigen, Neu5Acα6Galβ4Glc], the “binding of 125I-labelled neoglycoconjugate (in words)” value in experiment [3] was “Poor binding”; in experiment [3] (listed as sialyl-alfa 2,6 lactose conjugate) it was “did not demonstrate any binding activity”.

Regarding “Neu5Acα3Galβ4GlcNAc [equivalent structure linked by a shorter, 3 carbon spacer]”, the “binding of 125I-labelled neoglycoconjugate (in words)” value in experiment [3] was “much reduced in binding”.

As for `CC(=O)N[C@H]1[C@H]([C@H](O)[C@H](O)CO)O[C@@](O[C@H]2[C@@H](O)[C@@H](CO)O[C@@H](O[C@H]3[C@H](O)[C@@H](O)C(O)O[C@@H]3CO)[C@@H]2O)(C(=O)O)C[C@@H]1O` (some centres unmarked) [sialyl-alfa2.31actose antigen, Neu5Acα3Galβ4Glc], the fold lower affinity in experiment [4] (compared with the fucosylated sialyl-Lewis x structures) is listed as 20 fold. Also, the Kd in experiment [4] (read-out: affinity according to Scatchard) is 100 nM. Further, the “binding of 125I-labelled neoglycoconjugate (in words)” value in experiment [3] is reported as “Poor binding”.

Regarding NeuAcα3Galβ4Glcβ1Cer [GM3], the “Binding obtained with strain CCUG 17875” value in experiment [1] (Table 1) is recorded as “- (- denotes no darkening even at 2 nmol)”; in experiment [1] (Table 2) it was “- (– denotes no darkening even at 2 nmol)”. Also, the results for the “Binding obtained with strain CCUG 17874, the babA2 mutant and the babA1A2 mutant” value in experiment [2] (Table 1) and in experiment [2] (Table 2) were “- (- denotes no darkening even at 2 nmol)” and “- (– denotes no darkening even at 2 nmol)”, respectively.

As for “Fucα2Galβ3(Fucα4)GlcNAcβ3Galβ4Glcβ1Cer [Le^b-6]”, the “Binding obtained with strain CCUG 17875” value was “+^3 (+ denotes a darkening at 2 nmol)” in experiment [1] (Table 1) and “+3 (+3 denotes a significant darkening on the autoradiogram when 1 pmol of structure was applied on the thin-layer plate)” in experiment [1] (Table 2). Besides, the “binding to glycosphingolipids” value in experiment [2] is “did not recognize”. Besides, the “Binding obtained with strain CCUG 17874, the babA2 mutant and the babA1A2 mutant” value is “- (- denotes no darkening even at 2 nmol)” in experiment [2] (Table 1) and “- (– denotes no darkening even at 2 nmol)” in experiment [2] (Table 2).

For the compound “NeuAcα3Galβ4(Fucα3)GlcNAcβ3Galβ4Glcβ1Cer [S-Le^x]”, the “binding to glycosphingolipids” value in experiment [2] is reported as “weak binding”. The “amount required for binding” value in experiment [2] (weak, occasionally observed binding on thin-layer chromatogram) was 2 nmol.

For “Neu5Acα3Galβ4GlcNAc [alfa2.31actoseamine with a 14 carbon spacer]”, in experiment [3], the “binding of 125I-labelled neoglycoconjugate (in words)” value is “rather efficient binding”.
